IC50 data for 23 molecules are collected here from patent EP0655439A2, “5,6-Bicyclic glycoprotein IIb IIIa antagonists useful in inhibition of platelet aggregation” (ELI LILLY AND COMPANY, priority 1993, dated 1995).

As a reminder, the IC50 is the concentration that gives 50% inhibition. The low end stands for greater potency in that assay, the high end for weaker potency in that assay.

One experiment concerns the target T1, GPIIb-IIIa (Homo sapiens, UniProt P05106+P08514).
T1 construct: Purified platelet GPIIb-IIIa receptor was prepared as described by Fitzgerald, L.A., et al; from tissue; host or cells: platelets (purified by the method of Fitzgerald et al., Anal Biochem 1985)
As to the kind of experiment: GPIIb-IIIa ELISA assay (inhibition of fibrinogen binding to immobilized receptor). Conditions: purified platelet GPIIb-IIIa coated on plates; biotinylated fibrinogen 10 nM; 3 hours at 25 °C. Here is the method:
In the following assay, GPllb-Illa is prepared in purified form, by a method such as described by Fitzgerald, L.A., et al., Anal Biochem (1985) 151:159-177,(the disclosure of which is incorporated herein by reference). GPIIb-IIIa is coated onto microtiter plates. The coated support is then contacted with fibrinogen and with the test material and incubated for a sufficient time to permit maximal binding of fibrinogen to the immobilized GPIIb-IIIa. Fibrinogen is typically provided at a concentration of about 5-50 nM and the test material can, if desired, be added at a series of dilution. Typical incubations are 2-4 hr at 25°C, the time and temperature being interdependent.
After incubation, the solution containing the fibrinogen and test material is removed and the level of binding of fibrinogen measured by quantitating bound fibrinogen to GPllb-llla. Any suitable means of detection may be used, but it is convenient to employ labeled fibrinogen, for example using biotinylated labels. Such methods are well known in the art.
Purified platelet GPIIb-IIIa receptor was prepared as described by Fitzgerald, L.A., et al., Anal Biochem (1985) 151:169-177. Vitronectin receptor was prepared as described by Smith, J.W., J. Bioi Chem (1988) 263:18726-18731. After purification, the receptors were stored in 0.1% Triton X-100 at 0.1-1.0 mg/ml.
The receptors were coated to the wells of 96-well flat-bottom ELISA plates (Linbro EIA-Plus microtiter plate, Flow Laboratories) after diluting 1:200 with a solution of 20 mM Tris-HCI, 150 MM NaCi, 1 mM CaCl2, pH 7.4, to reduce the Triton x-100 concentration to below its critical micellar concentration and adding an aliquot of 100 ul to each well. The wells were all allowed to incubate overnight at 4°C, and then aspirated to dryness. Additional sites were blocked by the addition of bovine serum albumin (BSA) at 35 mg/ml in the above buffer for 2 hours at 30°C to prevent nonspecific binding. The wells were then washed once with binding buffer ([…] Tris-HCI, 100 mM Nacl 2 mM CaC12, 1 mg/ml BSA).
The corresponding ligands (fibrinogen, von Willebrand Factor, orvitronectin) were conjugated to biotin using commercially available reagents and standard protocols. The labeled ligands were added to the receptor- coated wells at final concentration of 10 nM (100 ul/well) and incubated for 3 hours at 25 °C in the presence or absence of the test samples. After incubation, the wells are aspirated to dryness and bound ligand is quan- titated.
The bound protein is detected by the addition of antibiotin antibody conjugated to alkaline phosphatase followed by addition of substrate (p-nitrcphenyl phosphate), and determination of the optical density of each well at 405 nM. Decreased color development is observed in wells incubated with test samples which inhibit binding of ligand to receptor.
(In an ELISA, binding on a coated surface is turned into a signal by an enzyme label.)

Experiment [1] relates to human platelet-rich plasma. The experiment in a line: Platelet aggregation assay (PRP), Aggregation-Human/PRP/ADP. The format is cell-based. Conditions: 1 min, 1 minute at 37°C before aggregating agent, most often ADP 5 µM. The protocol: In addition to the ELISA GPllb-Illa assay previously described the Aggregation-Human/PRP/ADP Assay is useful for evaluating therapeutic compounds.
Platelet-rich plasma was prepared from healthy human volunteers for use in determining inhibition of platelet aggregation by the compounds. Blood was collected via a 21 gauge butterfly cannula, using a two-syringe technique into 1/10 volume of 10% trisodium citrate.
Platelet-rich plasma was prepared at room temperature by centrifugation of the citrated whole blood at 100 x g for 15 minutes. The platelet rich plasma contained approximately 200-400,000 platelets/µl.
Platelet-poor plasma was prepared by centrifugation of citrated whole blood at 12,000 x g for 2 minutes.
Platelet aggregation was assayed in a 4-channel platelet aggregation profiler (PAP-4, Biodata, Hatboro, PA) according to the manufacturers directions. Inhibition of platelet aggregation was studied by adding varying amounts of test compounds to stirred human platelet-rich plasma. Specifically, the human platelet-rich plasma was incubated with test compounds for 1 minute at 37°C prior to the addition of a variety of aggregating agents most often ADP 5 µM, but also 1 µg/ml collagen, 1 µM U46619 or 1 µM platelet activating factor.

T1 sequence (P08514 32-887 limits assumed): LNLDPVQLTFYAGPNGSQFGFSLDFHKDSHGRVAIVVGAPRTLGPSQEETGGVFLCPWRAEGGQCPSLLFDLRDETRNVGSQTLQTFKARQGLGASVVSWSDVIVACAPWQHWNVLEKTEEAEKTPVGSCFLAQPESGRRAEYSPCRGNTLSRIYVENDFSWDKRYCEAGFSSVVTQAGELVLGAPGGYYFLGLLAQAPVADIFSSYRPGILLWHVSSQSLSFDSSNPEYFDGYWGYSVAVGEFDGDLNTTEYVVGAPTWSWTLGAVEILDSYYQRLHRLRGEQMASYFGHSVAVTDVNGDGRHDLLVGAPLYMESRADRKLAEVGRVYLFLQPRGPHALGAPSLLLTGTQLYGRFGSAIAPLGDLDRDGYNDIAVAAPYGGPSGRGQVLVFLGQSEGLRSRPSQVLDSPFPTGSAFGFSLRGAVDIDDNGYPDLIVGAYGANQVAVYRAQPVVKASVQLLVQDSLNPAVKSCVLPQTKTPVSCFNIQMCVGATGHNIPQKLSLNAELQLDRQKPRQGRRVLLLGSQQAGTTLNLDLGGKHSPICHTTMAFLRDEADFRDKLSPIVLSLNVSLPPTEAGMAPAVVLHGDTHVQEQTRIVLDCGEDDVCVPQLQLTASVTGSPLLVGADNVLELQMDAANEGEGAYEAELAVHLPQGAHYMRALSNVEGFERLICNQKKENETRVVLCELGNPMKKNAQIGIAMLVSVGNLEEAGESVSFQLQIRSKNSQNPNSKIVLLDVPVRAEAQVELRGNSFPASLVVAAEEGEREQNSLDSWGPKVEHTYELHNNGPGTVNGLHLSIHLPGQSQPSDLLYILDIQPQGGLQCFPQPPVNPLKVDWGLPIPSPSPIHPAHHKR
T1 sequence (P08514 891-1039 partner limits assumed): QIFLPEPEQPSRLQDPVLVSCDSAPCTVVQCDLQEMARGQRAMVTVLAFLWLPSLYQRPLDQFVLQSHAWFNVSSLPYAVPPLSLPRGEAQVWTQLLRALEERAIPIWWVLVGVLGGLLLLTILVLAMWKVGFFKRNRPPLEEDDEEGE
T1 sequence (P05106 27-788): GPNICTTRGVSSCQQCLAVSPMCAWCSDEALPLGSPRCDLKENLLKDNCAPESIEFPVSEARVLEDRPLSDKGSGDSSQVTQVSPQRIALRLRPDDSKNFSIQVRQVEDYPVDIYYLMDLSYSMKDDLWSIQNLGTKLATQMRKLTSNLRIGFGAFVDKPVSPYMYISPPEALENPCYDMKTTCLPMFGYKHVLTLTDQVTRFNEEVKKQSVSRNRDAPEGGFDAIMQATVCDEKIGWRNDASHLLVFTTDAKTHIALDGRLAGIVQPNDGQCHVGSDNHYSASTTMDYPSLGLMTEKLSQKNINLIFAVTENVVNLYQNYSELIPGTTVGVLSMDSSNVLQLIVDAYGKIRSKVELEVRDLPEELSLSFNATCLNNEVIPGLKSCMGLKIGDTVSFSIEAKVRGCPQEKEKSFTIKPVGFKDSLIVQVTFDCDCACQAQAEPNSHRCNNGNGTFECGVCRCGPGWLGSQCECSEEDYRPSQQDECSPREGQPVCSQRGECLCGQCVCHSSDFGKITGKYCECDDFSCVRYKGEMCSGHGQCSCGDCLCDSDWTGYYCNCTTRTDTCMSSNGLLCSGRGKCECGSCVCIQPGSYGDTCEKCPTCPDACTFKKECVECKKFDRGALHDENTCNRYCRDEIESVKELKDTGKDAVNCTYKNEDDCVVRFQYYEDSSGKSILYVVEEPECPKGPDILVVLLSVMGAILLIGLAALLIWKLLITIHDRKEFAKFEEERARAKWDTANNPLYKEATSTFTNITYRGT

In the case of `CC(CCCCNC(=O)c1cc2cc(C(=N)N)ccc2[nH]1)CC(=O)O` (stereo not drawn) [Example 17], the IC50 at GPIIb-IIIa worked out at 0.21 µM; in experiment [1], 2.7 µM. In the same order, the values of `CC(CCCCCNC(=O)c1cc2cc(C(=N)N)ccc2[nH]1)C(=O)O` (stereo not drawn) [Example 13] are 5.25 µM and 28 µM. The like results for `N=C(N)c1ccc2[nH]c(C(=O)NCCCCCC(=O)O)cc2c1` [Example 28] were, in that order, 42.7 µM and 100 µM. The like results for `N=C(N)c1ccc2sc(C(=O)NCCCCCCC(=O)O)cc2c1` [Example 23] were, in that order, 0.74 µM and 9 µM. Regarding `N=C(N)c1ccc(COc2ccc3oc(C(=O)NCC(=O)O)cc3c2)cc1` [Example 35], the IC50 was 3.4 µM at GPIIb-IIIa and 100 µM in experiment [1].

`N=C(N)c1ccc2[nH]c(C(=O)NCCCCC(=O)O)cc2c1` [Example 27]: 100 µM corresponded to half-maximal inhibition in experiment [1] (IC50). For the molecule `CN(CCCCCCC(=O)O)C(=O)c1cc2cc(C(=N)N)ccc2[nH]1` [Example 21], the IC50 at GPIIb-IIIa was 0.38 µM; in experiment [1] it was 2.5 µM. The like results for `CC(CCCCNC(=O)c1cc2cc(C(=N)N)ccc2s1)CC(=O)O` (stereo not drawn) [Example 31] were, in that order, 0.32 µM and 3.3 µM. The like results for `NCc1ccc2[nH]c(C(=O)NCCCCCCC(=O)O)cc2c1` [Example 36] were, in that order, 4.23 µM and 25 µM. Take `CCCCC(CCCCNC(=O)c1cc2cc(C(=N)N)ccc2[nH]1)CC(=O)O` (stereo not drawn) [Example 19]: the IC50 on GPIIb-IIIa amounted to 0.63 µM; in experiment [1] it was 30 µM. As for `CCC(CCCCNC(=O)c1cc2cc(C(=N)N)ccc2[nH]1)CC(=O)O` (stereo not drawn) [Example 18], the IC50 is 0.33 µM on GPIIb-IIIa and 5.8 µM in experiment [1]. In the same order, the values of `N=C(N)c1ccc2oc(C(=O)NCCCCCCC(=O)O)cc2c1` [Example 22] are 0.04 µM and 0.27 µM. In the same order, the values of `N=C(N)c1ccc2[nH]c(C(=O)NCCOCCCC(=O)O)cc2c1` [Example 12] are 1.2 µM and 9 µM.

With `Cc1c(C(=O)NCCCCCCC(=O)O)[nH]c2ccc(C(=N)N)cc12` [Example 33], the IC50 on GPIIb-IIIa was found to be 2.6 µM; in experiment [1], 5 µM. Consider `N=C(N)c1ccc2[nH]c(C(=O)NCc3ccc(CCC(=O)O)cc3)cc2c1` [Example 9], for which the IC50 was found to be 4.45 µM on GPIIb-IIIa and 40 µM in experiment [1]. Turning to `CCCCCCC(CCCCNC(=O)c1cc2cc(C(=N)N)ccc2[nH]1)CC(=O)O` (stereo not drawn) [Example 20], the IC50 worked out at 0.8 µM on GPIIb-IIIa and 70 µM in experiment [1]. In the same order, the values of `CCCC(CC1CCC(CNC(=O)c2cc3cc(C(=N)N)ccc3[nH]2)CC1)C(=O)O` (stereo not drawn) [Example 11] are more than 100 µM and more than 100 µM. In the same order, the values of `N=C(N)c1ccc2cc(C(=O)NCCCCCCC(=O)O)[nH]c2c1` [Example 25] are 0.13 µM and 0.8 µM. In the same order, the values of `CCC(CCCCCNC(=O)c1cc2cc(C(=N)N)ccc2[nH]1)C(=O)O` (stereo not drawn) [Example 14] are 21.5 µM and more than 100 µM. Regarding `N=C(N)c1ccc2[nH]c(C(=O)NCCCCCCC(=O)O)cc2c1` [Example 26], the IC50 was 0.7 µM at GPIIb-IIIa and 2.7 µM in experiment [1]. In the same order, the values of `Cn1c(C(=O)NCCCCCCC(=O)O)cc2cc(C(=N)N)ccc21` [Example 30] are 3 µM and 8 µM.

Take `CC(CCCCNC(=O)c1cc2cc(C(=N)N)ccc2o1)CC(=O)O` (stereo not drawn) [Example 32]: the IC50 at GPIIb-IIIa was 0.01 µM; in experiment [1], 0.23 µM. In the same order, the values of `CCCCCCC(CCCCCNC(=O)c1cc2cc(C(=N)N)ccc2[nH]1)C(=O)O` (stereo not drawn) [Example 16] are 19 µM and more than 100 µM.
